These results are taken from article PMC7124378 (International Journal of Biological Macromolecules, 2015).

The target of one assay is cathepsin B (Capra hircus, UniProt A0A452G2V1). As to the kind of experiment: Inhibition of purified goat liver cathepsin B, BANA substrate, pH 6.0. In kind it is biochemical.
Another assay has as its target T1, cathepsin H (Capra hircus, UniProt A0A452G5L2).
T1 sequence (A0A452G5L2 with tags, fused parts or gaps): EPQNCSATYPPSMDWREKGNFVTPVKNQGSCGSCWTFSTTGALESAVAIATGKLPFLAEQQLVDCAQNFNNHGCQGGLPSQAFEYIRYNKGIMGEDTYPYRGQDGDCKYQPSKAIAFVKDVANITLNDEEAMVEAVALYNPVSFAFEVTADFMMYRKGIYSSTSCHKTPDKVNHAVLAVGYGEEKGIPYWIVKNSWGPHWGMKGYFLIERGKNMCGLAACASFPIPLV
In words: Inhibition of purified goat liver cathepsin H, Leu-βNA substrate, pH 7.0. Type of assay: biochemical.

For the next assay, the target named is cathepsin L (Capra hircus, UniProt A0A452FFI6). As to the kind of experiment: Inhibition of purified goat liver cathepsin L, ZPheArg-4mβNA substrate, pH 6.0. In kind it is biochemical.
Another assay has as its target goat brain cathepsin B. Conditions: read-out: Ki, goat brain cathepsin B; competitive; cited from earlier work.
In a further assay the target is goat brain cathepsin L. As to conditions: read-out: Ki, goat brain cathepsin L; cited from earlier work.

Each structure is given as a SMILES string.

For orientation: Ki means the equilibrium dissociation constant of an inhibitor or competing ligand from its target. Regarding `NC(=O)N/N=C(\C=C\c1ccccc1Cl)c1ccccc1` [2a′, (1E)-1-((E)-3-(2-chlorophenyl)-1-phenylallylidene)semicarbazide], the Ki at cathepsin B came to 2.7 ± 0.04 µM; at cathepsin H it was 33 ± 0.4 µM; on cathepsin L, 0.04 ± 0.0003 nM.

For `NC(=O)N1N=C(c2ccccc2)CC1c1ccccc1Cl` (centres unmarked) [Compound 3a, 5-(2′-chlorophenyl)-3-phenyl-2-pyrazoline-1-carboxamide], the Ki on cathepsin B came to 9.4 ± 0.03 µM; at cathepsin H, 60 ± 0.3 µM; at cathepsin L it was 31.6 ± 0.4 nM.

Turning to `COc1cccc(C2CC(c3ccccc3)=NN2C(N)=O)c1` (centres unmarked) [Compound 3e], the results for the Ki at cathepsin B, at cathepsin H and at cathepsin L were 34.9 ± 0.1 µM, 43 ± 0.1 µM and 8.2 ± 0.06 nM, respectively.

Take `NC(=O)N1N=C(c2ccccc2)CC1c1ccccc1` (centres unmarked) [Compound 3i]: the inhibition constant Ki was found to be 52.4 ± 0.01 µM on cathepsin B, 192 ± 0.4 µM at cathepsin H and 86.2 ± 0.2 nM at cathepsin L.

As to `NC(=O)N/N=C(/C=C/c1ccccc1Cl)c1ccccc1` [Compound 2a, (1Z)-1-((E)-3-(2-chlorophenyl)-1-phenylallylidene)semicarbazide], the Ki at cathepsin B is 0.207 ± 0.001 µM; on cathepsin H it was 43 ± 0.2 µM; on cathepsin L, 1.78 ± 0.02 nM.

Turning to `O=C(/C=C/c1ccccc1Cl)c1ccccc1` [Compound 1a, (E)-3-(2-chlorophenyl)-1-phenylprop-2-en-1-one], the figures for the Ki on cathepsin B, at cathepsin H and at cathepsin L were 19.5 ± 0.2 µM, 110 ± 1 µM and 6 ± 0.02 nM, respectively.

`O=C(/C=C/c1cccc(Cl)c1)c1ccccc1` [Compound 1b, (E)-3-(3-chlorophenyl)-1-phenylprop-2-en-1-one]: the Ki was 130 ± 2 µM on cathepsin B, 312 ± 2 µM on cathepsin H and 0.04 ± 0.0001 nM at cathepsin L.

For `NC(=O)N/N=C(\C=C\c1ccc(Cl)cc1)c1ccccc1` [2c′, (1E)-1-((E)-3-(4-chlorophenyl)-1-phenylallylidene)semicarbazide], the Ki at cathepsin B amounted to 36.4 ± 0.5 µM; at cathepsin H it was 21 ± 0.2 µM; at cathepsin L it was 0.93 ± 0.007 nM.

For `NC(=O)N/N=C(/C=C/c1ccc(Cl)cc1)c1ccccc1` [Compound 2c, (1Z)-1-((E)-3-(4-chlorophenyl)-1-phenylallylidene)semicarbazide], the Ki turned out to be 27.3 ± 0.4 µM at cathepsin B, 29 ± 0.5 µM at cathepsin H and 1.17 ± 0.02 nM at cathepsin L.

Regarding `O=C(/C=C/c1cccc([N+](=O)[O-])c1)c1ccccc1` [Compound 1g, (E)-3-(3-nitrophenyl)-1-phenylprop-2-en-1-one], the Ki on cathepsin B was 100 ± 1 µM; at cathepsin H, 60 ± 0.2 µM; on cathepsin L, 2.05 ± 0.03 nM.

Consider `Cc1ccc(C2CC(c3ccccc3)=NN2C(N)=O)cc1` (centres unmarked) [Compound 3j], for which the Ki amounted to 116 ± 2 µM on cathepsin B, 48 ± 0.5 µM at cathepsin H and 23.4 ± 0.2 nM on cathepsin L.

For the compound `NC(=O)N1N=C(c2ccccc2)CC1c1cccc(Cl)c1` (centres unmarked) [Compound 3b, 5-(3′-chlorophenyl)-3-phenyl-2-pyrazoline-1-carboxamide], the inhibitory constant (Ki) on cathepsin B turned out to be 82.7 ± 1 µM; at cathepsin H it was 25 ± 0.5 µM; on cathepsin L, 50.5 ± 0.3 nM.

By inhibition is commonly meant the change of the read-out against control, counted positive when it falls. As for `CC(=O)N[C@@H](CC(C)C)C(=O)N[C@@H](CC(C)C)C(=O)N[C@H](C=O)CCCNC(=N)N` [Leupeptin, reference compound], at cathepsin B (read-out: % inhibition of cathepsin B), the inhibition at 1 µM is around 98.8%. In addition, the inhibition at 10 µM at cathepsin H (read-out: % inhibition of cathepsin H) is around 52%. Further, at cathepsin L (read-out: % inhibition of cathepsin L), the inhibition at 0.001 µM was found to be 89.2%. Further, the Ki on goat brain cathepsin B was 0.0125 µM; on goat brain cathepsin L it was 0.00145 µM.

In the case of `NC(=O)N1N=C(c2ccccc2)CC1c1ccc(Cl)cc1` (centres unmarked) [Compound 3c], the Ki on cathepsin B worked out at 39 ± 0.2 µM; on cathepsin H it was 66 ± 0.4 µM; on cathepsin L it was 33 ± 0.1 nM.

Consider `NC(=O)N/N=C(/C=C/c1cccc([N+](=O)[O-])c1)c1ccccc1` [Compound 2g, (1Z)-1-((E)-3-(3-nitrophenyl)-1-phenylallylidene)semicarbazide], for which the inhibitory constant (Ki) worked out at 41.3 ± 0.5 µM at cathepsin B, 23 ± 0.3 µM at cathepsin H and 2.05 ± 0.02 nM at cathepsin L.

Consider `COc1ccccc1C1CC(c2ccccc2)=NN1C(N)=O` (centres unmarked) [Compound 3d], for which the Ki on cathepsin B turned out to be 14.8 ± 0.07 µM; at cathepsin H, 40 ± 0.1 µM; on cathepsin L, 217 ± 4 nM.

For `COc1ccc(C2CC(c3ccccc3)=NN2C(N)=O)cc1` (centres unmarked) [Compound 3f], the Ki stood at 69.3 ± 0.07 µM on cathepsin B, 48 ± 0.2 µM at cathepsin H and 0.5 ± 0.002 nM on cathepsin L.

Take `NC(=O)N1N=C(c2ccccc2)CC1c1cccc([N+](=O)[O-])c1` (centres unmarked) [Compound 3g, 5-(3′-nitrophenyl)-3-phenyl-2-pyrazoline-1-carboxamide]: the Ki on cathepsin B stood at 58.1 ± 0.05 µM; at cathepsin H, 38 ± 0.2 µM; at cathepsin L, 0.4 ± 0.005 nM.

For the compound `NC(=O)N1N=C(c2ccccc2)CC1c1ccc([N+](=O)[O-])cc1` (centres unmarked) [Compound 3h], the results for the inhibition constant (Ki) at cathepsin B, on cathepsin H and at cathepsin L were 39 ± 0.03 µM, 60 ± 0.3 µM and 16.9 ± 0.3 nM, respectively.
